Results: ChEMBL document CHEMBL4270508, “1,3,5-Triazines: A promising scaffold for anticancer drugs development” (Eur J Med Chem, 2017)
In brackets after ≈: the same amount, converted by molar mass.

Legend:
MCF7 [1] = test: Antiproliferative activity in human MCF7 cells assessed as inhibition of cell proliferation; assay type: functional, cell-based
MDA-MB-231 [2] = test: Antiproliferative activity in human MDA-MB-231 cells assessed as inhibition of cell proliferation; assay type: functional, cell-based
MDA-MB-231 [3] = test: Antiproliferative activity in human MDA-MB-231 cells incubated for 72 hrs by MTT assay; assay type: functional, cell-based; conditions: MDA-MB-231, 72 h
HT-29 [4] = test: Antiproliferative activity in human HT-29 cells incubated for 72 hrs by MTT assay; assay type: functional, cell-based; conditions: HT-29, 72 h
NCI-H460 = test: Antiproliferative activity in human NCI-H460 cells incubated for 72 hrs by MTT assay; assay type: functional, cell-based; conditions: NCI-H460, 72 h
[5] = Inhibition of rhodamine-labeled purified porcine brain tubulin polymerization in presence of GTP incubated for 30 mins by epifluorescence microscopy; set-up: species or system Sus scrofa
[6] = target: Cyclin-dependent kinase 7/ cyclin H (Homo sapiens, UniProt P50613); test: Inhibition of human recombinant CDK7/cyclin H using histone H1 and [gamma-33P]ATP incubated fro 30 mins by scintillation counting analysis; assay type: protein-complex assay
[7] = Inhibition of starfish oocytes CDK1/cyclin B using histone H1 and [gamma-33P]ATP incubated fro 30 mins by scintillation counting analysis; set-up: species or system Asteroidea
[8] = target: Cyclin-dependent kinase 5/CDK5 activator 1 (Homo sapiens, UniProt Q00535); test: Inhibition of human recombinant CDK5/p25 using histone H1 and [gamma-33P]ATP incubated fro 30 mins by scintillation counting analysis; assay type: protein-complex assay
CDK9/cyclin T1 = CDK9/cyclin T1 (Homo sapiens, UniProt P50750); test: Inhibition of human recombinant CDK9/cyclin T expressed in insect cells using pRb fragment (773 to 928 amino acids) and [gamma-33P]ATP incubated fro 30 mins by scintillation counting analysis
K562 [9] = test: Antiproliferative activity in human K562 cells assessed as inhibition of cell proliferation by SRB/MTT assay; assay type: functional, cell-based
A549 [10] = test: Antiproliferative activity in human A549 cells assessed as inhibition of cell proliferation by SRB/MTT assay; assay type: functional, cell-based
BT-474 = test: Antiproliferative activity in human BT474 cells assessed as inhibition of cell proliferation by SRB/MTT assay; assay type: functional, cell-based
HCT-116 = test: Antiproliferative activity in human HCT116 cells assessed as inhibition of cell proliferation by SRB/MTT assay; assay type: functional, cell-based
SK-BR-3 = test: Antiproliferative activity in human SK-BR-3 cells assessed as inhibition of cell proliferation by SRB/MTT assay; assay type: functional, cell-based
MCF7 [11] = test: Anticancer activity against human MCF7 cells incubated for 48 hrs by SRB assay; assay type: functional, cell-based; conditions: MCF7, 48 h
HepG2 = test: Anticancer activity against human HepG2 cells incubated for 48 hrs by SRB assay; assay type: functional, cell-based; conditions: HepG2, 48 h
[12] = test system: Panel NCI-60 (60 carcinoma cell lines); test: Growth inhibition of human NCI60 cells incubated for 48 hrs by SRB assay; assay type: functional, cell-based
Homo sapiens = species: Homo sapiens; test: Inhibition of PI3K in human A549 cell lysates assessed as remaining enzyme activity at 1 uM pre-incubated for 5 mins before [gamma-32P]ATP addition and further incubated for 20 mins by TLC and autoradiography relative to untreated control
[13] = target: Ubiquitin-conjugating enzyme E2 B (Homo sapiens, UniProt P63146); test: Inhibition of human recombinant Rad6B using ubiquitin and histone H2A and ubiquitin-activating enzyme E1 preincubated for 1 hr before ubiquitin and histone H2A addition by SDS-PAGE and immunoblotting analysis
A549 [14] = test: Antiproliferative activity in human A549 cells assessed as inhibition of cell proliferation by MTT assay; assay type: functional, cell-based
K562 [15] = test: Cytotoxicity in human K562 cells assessed as reduction in cell viability incubated for 72 hrs by MTT assay; assay type: functional, cell-based; conditions: K562, 72 h
PC-3 = test: Cytotoxicity in human PC3 cells assessed as reduction in cell viability incubated for 72 hrs by MTT assay; assay type: functional, cell-based; conditions: PC-3, 72 h
[16] = Cytotoxicity in human HO8910 cells assessed as reduction in cell viability incubated for 72 hrs by MTT assay; assay type: functional, cell-based; conditions: HO-8910, 72 h
HGC-27 = test: Anticancer activity against human HGC27 cells incubated for 48 hrs by MTT assay; assay type: functional, cell-based; conditions: HGC-27, 48 h
HT-29 [17] = test: Anticancer activity against human HT-29 cells incubated for 48 hrs by MTT assay; assay type: functional, cell-based; conditions: HT-29, 48 h
MCF7 [18] = test: Anticancer activity against human MCF7 cells incubated for 48 hrs by MTT assay; assay type: functional, cell-based; conditions: MCF7, 48 h
MDA-MB-231 [19] = test: Anticancer activity against human MDA-MB-231 cells incubated for 48 hrs by MTT assay; assay type: functional, cell-based; conditions: MDA-MB-231, 48 h

Chain of Cyclin-dependent kinase 7/ cyclin H (P51946 whole entry): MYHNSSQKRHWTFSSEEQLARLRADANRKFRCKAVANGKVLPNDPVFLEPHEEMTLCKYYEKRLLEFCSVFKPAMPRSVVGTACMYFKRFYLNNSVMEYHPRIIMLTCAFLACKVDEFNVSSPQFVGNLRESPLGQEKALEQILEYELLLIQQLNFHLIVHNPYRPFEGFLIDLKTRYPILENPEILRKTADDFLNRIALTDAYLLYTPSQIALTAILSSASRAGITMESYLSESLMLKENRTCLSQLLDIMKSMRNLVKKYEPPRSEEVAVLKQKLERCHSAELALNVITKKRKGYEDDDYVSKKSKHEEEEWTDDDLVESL
Chain of Cyclin-dependent kinase 7/ cyclin H (P50613 whole entry): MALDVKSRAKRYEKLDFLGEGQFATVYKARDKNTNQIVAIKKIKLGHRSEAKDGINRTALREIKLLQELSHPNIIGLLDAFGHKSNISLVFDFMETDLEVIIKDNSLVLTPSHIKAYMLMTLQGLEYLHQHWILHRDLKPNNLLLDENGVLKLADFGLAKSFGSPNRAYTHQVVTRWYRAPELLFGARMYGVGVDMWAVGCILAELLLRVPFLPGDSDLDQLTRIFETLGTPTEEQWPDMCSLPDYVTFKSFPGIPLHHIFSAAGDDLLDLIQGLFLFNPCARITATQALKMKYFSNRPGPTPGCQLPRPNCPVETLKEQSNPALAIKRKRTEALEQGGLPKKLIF
Chain of Cyclin-dependent kinase 5/CDK5 activator 1 (Q00535 whole entry, the tested form may be a part): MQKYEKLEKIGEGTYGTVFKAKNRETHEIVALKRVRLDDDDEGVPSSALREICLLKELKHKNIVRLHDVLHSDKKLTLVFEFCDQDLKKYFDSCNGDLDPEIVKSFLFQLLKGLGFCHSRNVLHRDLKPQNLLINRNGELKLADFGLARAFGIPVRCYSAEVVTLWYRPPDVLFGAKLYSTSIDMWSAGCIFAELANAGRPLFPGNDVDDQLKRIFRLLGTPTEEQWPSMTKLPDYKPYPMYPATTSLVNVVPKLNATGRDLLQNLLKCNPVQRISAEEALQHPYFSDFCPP
Chain of Cyclin-dependent kinase 5/CDK5 activator 1 (Q15078 whole entry, further chain, the tested form may be a part): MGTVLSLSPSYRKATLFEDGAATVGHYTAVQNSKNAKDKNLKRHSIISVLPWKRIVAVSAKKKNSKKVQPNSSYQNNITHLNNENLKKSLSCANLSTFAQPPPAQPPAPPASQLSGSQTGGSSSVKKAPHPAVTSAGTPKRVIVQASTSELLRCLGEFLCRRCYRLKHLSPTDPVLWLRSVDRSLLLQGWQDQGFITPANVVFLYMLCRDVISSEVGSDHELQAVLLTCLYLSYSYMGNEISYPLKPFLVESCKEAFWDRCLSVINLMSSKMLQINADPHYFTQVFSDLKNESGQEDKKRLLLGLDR
Chain of Ubiquitin-conjugating enzyme E2 B (P63146 whole entry): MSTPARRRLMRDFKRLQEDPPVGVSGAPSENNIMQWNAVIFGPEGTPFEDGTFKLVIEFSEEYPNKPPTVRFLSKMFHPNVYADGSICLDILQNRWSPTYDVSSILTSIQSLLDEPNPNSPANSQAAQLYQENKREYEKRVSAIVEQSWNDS
Chain of CDK9/cyclin T1 (O60563 whole entry, the tested form may be a part): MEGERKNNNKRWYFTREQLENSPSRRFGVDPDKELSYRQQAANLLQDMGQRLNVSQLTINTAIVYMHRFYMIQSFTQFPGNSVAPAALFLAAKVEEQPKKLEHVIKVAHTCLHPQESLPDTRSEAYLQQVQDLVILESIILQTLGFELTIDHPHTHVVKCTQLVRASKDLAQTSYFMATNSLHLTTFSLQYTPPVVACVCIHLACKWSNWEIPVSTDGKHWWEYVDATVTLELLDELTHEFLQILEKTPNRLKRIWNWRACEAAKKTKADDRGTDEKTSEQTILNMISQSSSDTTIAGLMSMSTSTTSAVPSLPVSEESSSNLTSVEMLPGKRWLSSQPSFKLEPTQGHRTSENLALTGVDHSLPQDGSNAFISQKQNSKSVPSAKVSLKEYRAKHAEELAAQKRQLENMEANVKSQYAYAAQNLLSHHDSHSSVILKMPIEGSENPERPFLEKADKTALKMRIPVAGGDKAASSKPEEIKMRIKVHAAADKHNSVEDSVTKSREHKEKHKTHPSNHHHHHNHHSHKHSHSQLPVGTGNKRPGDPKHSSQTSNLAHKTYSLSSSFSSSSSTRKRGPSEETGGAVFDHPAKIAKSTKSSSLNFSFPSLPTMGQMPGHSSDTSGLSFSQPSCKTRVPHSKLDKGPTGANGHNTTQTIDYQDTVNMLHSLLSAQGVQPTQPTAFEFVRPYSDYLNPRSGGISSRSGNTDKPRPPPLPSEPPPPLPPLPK
Chain of CDK9/cyclin T1 (P50750 whole entry, the tested form may be a part): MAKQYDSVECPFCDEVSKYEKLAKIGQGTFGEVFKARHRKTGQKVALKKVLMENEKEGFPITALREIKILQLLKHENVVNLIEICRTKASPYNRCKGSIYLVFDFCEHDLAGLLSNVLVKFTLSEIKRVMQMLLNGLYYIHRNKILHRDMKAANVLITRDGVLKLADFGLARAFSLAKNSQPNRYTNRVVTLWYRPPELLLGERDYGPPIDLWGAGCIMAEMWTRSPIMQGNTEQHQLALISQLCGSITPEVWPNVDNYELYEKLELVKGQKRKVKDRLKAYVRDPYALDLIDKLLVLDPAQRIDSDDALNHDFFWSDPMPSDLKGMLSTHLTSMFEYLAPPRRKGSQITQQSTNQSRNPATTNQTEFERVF

COc1nc(N2CCOCC2)nc([N+]23CC[N+](CCCl)(CC2)CC3)n1
IC50 (MCF7 [1]): 7.4 to 136 µM | IC50 (MDA-MB-231 [2]): 40.3 to 112 µM

COc1nc(Nc2ccccc2)nc([N+]23CC[N+](CCCl)(CC2)CC3)n1
IC50 (MCF7 [1]): 12.3 µM | IC50 (MDA-MB-231 [2]): 40.3 to 112 µM

COC(=O)[C@H](Cc1ccccc1)Nc1nc(OC)nc([N+]23CC[N+](CCCl)(CC2)CC3)n1
IC50 (MCF7 [1]): 7.4 to 136 µM | IC50 (MDA-MB-231 [2]): 40.3 to 112 µM

C=CCc1cc(C)cc(/C=N/NC(=O)Nc2nc(N3CCOCC3)nc(N3CCOCC3)n2)c1O
IC50 (MDA-MB-231 [3]): 0.6 µM | IC50 (HT-29 [4]): 0.34 µM | IC50 (NCI-H460): 0.75 µM

COC(=O)[C@H](CO)Nc1nc(OC)nc([N+]23CC[N+](CCCl)(CC2)CC3)n1
IC50 (MCF7 [1]): 7.4 to 136 µM | IC50 (MDA-MB-231 [2]): 40.3 to 112 µM

COc1ccc(CNc2nc(NCc3ccc(OC)cc3)c3ncn(C(C)C)c3n2)cc1 [MYOSEVERIN]
IC50 [5]: 3.6 µM

COc1nc(Nc2ccc(C)cc2)nc([N+]23CC[N+](CCCl)(CC2)CC3)n1
IC50 (MCF7 [1]): 7.4 µM | IC50 (MDA-MB-231 [2]): 40.3 to 112 µM

Clc1ccc(Cn2cc(/C=N/Nc3nc(N4CCOCC4)nc(N4CCOCC4)n3)c3ccccc32)cc1Cl
IC50 (NCI-H460): 0.07 µM

CC[C@H](CO)Nc1nc(NCc2ccccc2)n2ncc(C(C)C)c2n1
IC50 [6]: 0.043 to 0.5 µM | IC50 [7]: 0.043 to 0.5 µM | IC50 [8]: 0.043 to 0.5 µM | IC50 (CDK9/cyclin T1): 0.043 to 0.5 µM

Cc1cc(C)n(-c2nc(N/N=C\c3c[nH]c4ccccc34)nc(Nc3ccc(Br)cc3)n2)n1
IC50 (K562 [9]): 8.6 µM | IC50 (A549 [10]): 7.5 µM | IC50 (BT-474): 7.1 µM | IC50 (HCT-116): 6.7 µM | IC50 (SK-BR-3): 8.9 µM

CCCCCCCCCCCCCCCCOC(=O)c1cc(C(=O)OCCCCCCCCCCCCCCCC)cc(-n2cc(-c3nc(-c4cn(-c5cc(C(=O)OCCCCCCCCCCCCCCCC)cc(C(=O)OCCCCCCCCCCCCCCCC)c5)nn4)nc(-c4cn(-c5cc(C(=O)OCCCCCCCCCCCCCCCC)cc(C(=O)OCCCCCCCCCCCCCCCC)c5)nn4)n3)nn2)c1
IC50 (MCF7 [11]): 2.95 µg/mL (≈ 1.39 µM) | IC50 (HepG2): 3.7 µg/mL (≈ 1.74 µM)

Nc1nc2nc(-c3ccccc3)nc(-c3ccccc3)n2n1
IC50 [12]: 0.49 to 100 µM

COC(=O)[C@H](C)Nc1nc(OC)nc([N+]23CC[N+](CCCl)(CC2)CC3)n1
IC50 (MCF7 [1]): 7.4 to 136 µM | IC50 (MDA-MB-231 [2]): 40.3 to 112 µM

O=C(O)CCCc1ccc(N(CCCl)CCCl)cc1 [CHLORAMBUCIL]
IC50 (MCF7 [1]): 29.1 µM

CCCCNc1nc(OC)nc([N+]23CC[N+](CCCl)(CC2)CC3)n1
IC50 (MCF7 [1]): 7.4 to 136 µM | IC50 (MDA-MB-231 [2]): 40.3 to 112 µM

FC(F)c1nc2ccccc2n1-c1nc(N2CCOCC2)nc(N2CCOCC2)n1
Activity (Homo sapiens): 4.7%

COc1nc(N2CCCCC2)nc([N+]23CC[N+](CCCl)(CC2)CC3)n1
IC50 (MCF7 [1]): 7.4 to 136 µM | IC50 (MDA-MB-231 [2]): 40.3 to 112 µM

Nc1nc(COC(=O)c2ccc([N+](=O)[O-])cc2)nc(Nc2ccccc2)n1
IC50 [13]: 0.025 µM

COc1nc(NCc2ccccc2)nc([N+]23CC[N+](CCCl)(CC2)CC3)n1
IC50 (MCF7 [1]): 7.4 to 136 µM | IC50 (MDA-MB-231 [2]): 40.3 to 112 µM

N#Cc1ccc(Cn2cc(/C=N/Nc3nc(N4CCOCC4)nc(N4CCOCC4)n3)c3ccccc32)cc1
IC50 (NCI-H460): 0.05 µM

Cc1cc(=O)n2c(n1)N=C(N)NC2c1ccco1 (configuration not stated)
IC50 (A549 [14]): 6 µM

Cc1ccc(Nc2nc(-c3ccccc3)nc(N3CCNCC3)n2)cc1
IC50 (K562 [15]): 1.01 µM | IC50 (PC-3): 2.23 µM | IC50 [16]: 1.06 µM

c1ccc(Nc2nc(Nc3ccc(-c4nc5ccccc5[nH]4)cc3)nc(N3CCOCC3)n2)cc1
IC50 (HGC-27): 4.8 to 15.1 µM | IC50 (HT-29 [17]): 4.8 to 15.1 µM | IC50 (MCF7 [18]): 4.8 to 15.1 µM | IC50 (MDA-MB-231 [19]): 4.8 to 15.1 µM
